What was measured:
Assay type in all cases: in vivo
ABUTH [1] = test: Pre-emergence herbicidal activity, glasshouse pot test; details: rate 1000 g/Ha, evaluated after 13 days, scale 0-5; further: key: 5=total damage to plant; 0=no damage to plant
Method in brief: (§1)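 Seeds sown in standard soil in pots, held one day in glasshouse (24/16 °C day/night, 14 h light, 65% humidity), then sprayed with aqueous solution of compound formulated in acetone/water 50:50 with 0.5% Tween 20. Grown on under same conditions, watered twice daily; damage scored after 13 days (0 = none, 5 = total).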

ALOMY [2] = test: as above; details: rate 1000 g/Ha, evaluated after 13 days, scale 0-5
Method in brief: as §1

AMARE [3] = test: as above; details: rate 1000 g/Ha, evaluated after 13 days, scale 0-5
Method in brief: as §1

ECHCG [4] = test: as above; details: rate 1000 g/Ha, evaluated after 13 days, scale 0-5
Method in brief: as §1

SETFA [5] = test: as above; details: rate 1000 g/Ha, evaluated after 13 days, scale 0-5
Method in brief: as §1

ZEAMX [6] = test: as above; details: rate 1000 g/Ha, evaluated after 13 days, scale 0-5
Method in brief: as §1

ABUTH [7] = test: Post-emergence herbicidal activity, glasshouse pot test; details: Abutilon theophrasti; application post-emergence; rate 1000 g/Ha; evaluated after 13 days; further: key: 5=total damage to plant; 0=no damage to plant
Method in brief: (§2)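 Pot-grown seedlings sprayed 8 days after sowing with active ingredient in acetone/water (50:50) plus 0.5% Tween 20. Glasshouse at 24/16 °C day/night, 14 h light, 65% humidity, watered twice daily. Damage scored after 13 days on a 0–5 scale (5 = total damage, 0 = none).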

ALOMY [8] = test: as above; details: Alopecurus myosuroides; application post-emergence; rate 1000 g/Ha; evaluated after 13 days
Method in brief: as §2

AMARE [9] = test: as above; details: Amaranthus retroflexus; application post-emergence; rate 1000 g/Ha; evaluated after 13 days
Method in brief: as §2

ECHCG [10] = test: as above; details: Echinochloa crus-galli; application post-emergence; rate 1000 g/Ha; evaluated after 13 days
Method in brief: as §2

SETFA [11] = test: as above; details: Setaria faberi; application post-emergence; rate 1000 g/Ha; evaluated after 13 days
Method in brief: as §2

ZEAMX [12] = test: as above; details: Zea mays; application post-emergence; rate 1000 g/Ha; evaluated after 13 days
Method in brief: as §2
Wherever AMARE damage score, application pre-emergence is given: key: 5=total damage to plant; 0=no damage to plant.
Wherever Post-emergence herbicidal activity ALOMY (damage score 0-5) is given: key: 5=total damage to plant; 0=no damage to plant.
Wherever Post-emergence herbicidal activity AMARE (damage score 0-5) is given: key: 5=total damage to plant; 0=no damage to plant.
Wherever Post-emergence herbicidal activity ECHCG (damage score 0-5) is given: key: 5=total damage to plant; 0=no damage to plant.

CCO[C@@H]1[C@@H](OC(=O)C(C)Cl)N(c2cc(C(F)(F)F)ccn2)C(=O)N1C (stereo partly drawn) [Compound A101]
ABUTH damage score, application pre-emergence (ABUTH [1]): 5 | ALOMY damage score, application pre-emergence (ALOMY [2]): 4 | AMARE damage score, application pre-emergence (AMARE [3]): 5 | ECHCG damage score, application pre-emergence (ECHCG [4]): 4 | SETFA damage score, application pre-emergence (SETFA [5]): 4 | ZEAMX damage score, application pre-emergence (ZEAMX [6]): 0 | Post-emergence herbicidal activity ABUTH (damage score 0-5) (ABUTH [7]): 5 | Post-emergence herbicidal activity ALOMY (damage score 0-5) (ALOMY [8]): 5 | Post-emergence herbicidal activity AMARE (damage score 0-5) (AMARE [9]): 5 | Post-emergence herbicidal activity ECHCG (damage score 0-5) (ECHCG [10]): 5 | Post-emergence herbicidal activity SETFA (damage score 0-5) (SETFA [11]): 5 | Post-emergence herbicidal activity ZEAMX (damage score 0-5) (ZEAMX [12]): 3

CON1C(=O)N(c2cc(C(F)(F)F)c(Cl)cn2)C(O)C1C (stereo not drawn) [Compound A50]
ABUTH damage score, application pre-emergence (ABUTH [1]): 5 | ALOMY damage score, application pre-emergence (ALOMY [2]): 4 | AMARE damage score, application pre-emergence (AMARE [3]): 5 | ECHCG damage score, application pre-emergence (ECHCG [4]): 5 | SETFA damage score, application pre-emergence (SETFA [5]): 4 | ZEAMX damage score, application pre-emergence (ZEAMX [6]): 2 | Post-emergence herbicidal activity ABUTH (damage score 0-5) (ABUTH [7]): 5 | Post-emergence herbicidal activity ALOMY (damage score 0-5) (ALOMY [8]): 5 | Post-emergence herbicidal activity AMARE (damage score 0-5) (AMARE [9]): 5 | Post-emergence herbicidal activity ECHCG (damage score 0-5) (ECHCG [10]): 5 | Post-emergence herbicidal activity SETFA (damage score 0-5) (SETFA [11]): 5 | Post-emergence herbicidal activity ZEAMX (damage score 0-5) (ZEAMX [12]): 5

COC1C(O)N(c2cc(C(F)(F)F)ccn2)C(=O)N1C (stereo not drawn) [Compound A5]
ABUTH damage score, application pre-emergence (ABUTH [1]): 5 | ALOMY damage score, application pre-emergence (ALOMY [2]): 3 | AMARE damage score, application pre-emergence (AMARE [3]): 5 | ECHCG damage score, application pre-emergence (ECHCG [4]): 4 | SETFA damage score, application pre-emergence (SETFA [5]): 4 | ZEAMX damage score, application pre-emergence (ZEAMX [6]): 2 | Post-emergence herbicidal activity ABUTH (damage score 0-5) (ABUTH [7]): 5 | Post-emergence herbicidal activity ALOMY (damage score 0-5) (ALOMY [8]): 4 | Post-emergence herbicidal activity AMARE (damage score 0-5) (AMARE [9]): 5 | Post-emergence herbicidal activity ECHCG (damage score 0-5) (ECHCG [10]): 4 | Post-emergence herbicidal activity SETFA (damage score 0-5) (SETFA [11]): 4 | Post-emergence herbicidal activity ZEAMX (damage score 0-5) (ZEAMX [12]): 2

CC1C(O)N(c2cc(C(F)(F)F)c(-c3ccccn3)cn2)C(=O)N1C (stereo not drawn) [Compound A9]
ABUTH damage score, application pre-emergence (ABUTH [1]): 5 | ALOMY damage score, application pre-emergence (ALOMY [2]): 4 | AMARE damage score, application pre-emergence (AMARE [3]): 5 | ECHCG damage score, application pre-emergence (ECHCG [4]): 5 | SETFA damage score, application pre-emergence (SETFA [5]): 5 | ZEAMX damage score, application pre-emergence (ZEAMX [6]): 3 | Post-emergence herbicidal activity ABUTH (damage score 0-5) (ABUTH [7]): 5 | Post-emergence herbicidal activity ALOMY (damage score 0-5) (ALOMY [8]): 5 | Post-emergence herbicidal activity AMARE (damage score 0-5) (AMARE [9]): 5 | Post-emergence herbicidal activity ECHCG (damage score 0-5) (ECHCG [10]): 5 | Post-emergence herbicidal activity SETFA (damage score 0-5) (SETFA [11]): 5 | Post-emergence herbicidal activity ZEAMX (damage score 0-5) (ZEAMX [12]): 4

C=CCOC1C(O)N(c2cc(C(F)(F)F)ccn2)C(=O)N1C (stereo not drawn) [Compound A41]
ABUTH damage score, application pre-emergence (ABUTH [1]): 5 | ALOMY damage score, application pre-emergence (ALOMY [2]): 1 | AMARE damage score, application pre-emergence (AMARE [3]): 5 | ECHCG damage score, application pre-emergence (ECHCG [4]): 2 | SETFA damage score, application pre-emergence (SETFA [5]): 2 | ZEAMX damage score, application pre-emergence (ZEAMX [6]): 1 | Post-emergence herbicidal activity ABUTH (damage score 0-5) (ABUTH [7]): 5 | Post-emergence herbicidal activity ALOMY (damage score 0-5) (ALOMY [8]): 4 | Post-emergence herbicidal activity AMARE (damage score 0-5) (AMARE [9]): 5 | Post-emergence herbicidal activity ECHCG (damage score 0-5) (ECHCG [10]): 2 | Post-emergence herbicidal activity SETFA (damage score 0-5) (SETFA [11]): 4 | Post-emergence herbicidal activity ZEAMX (damage score 0-5) (ZEAMX [12]): 2

CCOC1C(O)N(c2cc(C(F)(F)F)c(OC)cn2)C(=O)N1C (stereo not drawn) [Compound A10]
ABUTH damage score, application pre-emergence (ABUTH [1]): 5 | ALOMY damage score, application pre-emergence (ALOMY [2]): 4 | AMARE damage score, application pre-emergence (AMARE [3]): 5 | ECHCG damage score, application pre-emergence (ECHCG [4]): 5 | SETFA damage score, application pre-emergence (SETFA [5]): 5 | ZEAMX damage score, application pre-emergence (ZEAMX [6]): 3 | Post-emergence herbicidal activity ABUTH (damage score 0-5) (ABUTH [7]): 5 | Post-emergence herbicidal activity ALOMY (damage score 0-5) (ALOMY [8]): 5 | Post-emergence herbicidal activity AMARE (damage score 0-5) (AMARE [9]): 5 | Post-emergence herbicidal activity ECHCG (damage score 0-5) (ECHCG [10]): 5 | Post-emergence herbicidal activity SETFA (damage score 0-5) (SETFA [11]): 5 | Post-emergence herbicidal activity ZEAMX (damage score 0-5) (ZEAMX [12]): 4
